Data: US20250064941A1, “SIGLEC LIGANDS, CONJUGATES, AND METHODS OF USE THEREOF” (Osprey Biopharmaceuticals, Inc., priority 2023, published 2025)

What was measured:
[1] = molecular target: T1, human Siglec-2/CD22 protein (Homo sapiens, UniProt P20273); assay: SPR binding affinity to human CD22; conditions: steady-state analysis
T1 construct: purchased Acro Biosystems SI2-H82E3
T1 sequence (P20273 20-847): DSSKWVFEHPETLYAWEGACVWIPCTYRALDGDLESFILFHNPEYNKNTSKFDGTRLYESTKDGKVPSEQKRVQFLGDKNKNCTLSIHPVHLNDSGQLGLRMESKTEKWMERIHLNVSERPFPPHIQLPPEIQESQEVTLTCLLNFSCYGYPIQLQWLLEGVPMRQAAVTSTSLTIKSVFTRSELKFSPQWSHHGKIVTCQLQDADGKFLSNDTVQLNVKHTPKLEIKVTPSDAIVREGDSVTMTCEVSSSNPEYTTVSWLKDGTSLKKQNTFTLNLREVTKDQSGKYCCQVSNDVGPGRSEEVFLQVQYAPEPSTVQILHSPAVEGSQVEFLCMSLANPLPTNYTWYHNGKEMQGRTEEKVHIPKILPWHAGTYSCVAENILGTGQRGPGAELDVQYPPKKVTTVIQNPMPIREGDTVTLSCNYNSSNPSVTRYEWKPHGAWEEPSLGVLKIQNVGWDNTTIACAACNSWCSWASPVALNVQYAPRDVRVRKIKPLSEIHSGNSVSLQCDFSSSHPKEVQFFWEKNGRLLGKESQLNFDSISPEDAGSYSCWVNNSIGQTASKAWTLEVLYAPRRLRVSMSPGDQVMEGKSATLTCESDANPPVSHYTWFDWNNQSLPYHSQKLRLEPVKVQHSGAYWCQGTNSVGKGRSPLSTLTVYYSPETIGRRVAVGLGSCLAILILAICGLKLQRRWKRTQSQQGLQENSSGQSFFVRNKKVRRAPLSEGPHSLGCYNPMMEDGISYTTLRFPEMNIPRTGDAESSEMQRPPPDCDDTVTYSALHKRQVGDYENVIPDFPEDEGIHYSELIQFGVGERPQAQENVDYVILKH
Experimental: (§1) Prior to immobilization, CD22 proteins were treated with SialoExo (Genovis, Cat #G1-SM1-020) for 4 hours at 37° C. to remove native sialic acid residues.
(§2) Capture of biotinylated CD22 constructs was performed using a Cytiva SA chip (BR100398) on a Biacore 8K instrument.
(§3) Binding experiments of Siglec-ligand conjugated proteins or Siglec ligand compounds were performed on the surfaces prepared above in 10 mM HEPES, 150 mM NaCl, 0.05% Tween-20, pH 7.5, 1% DMSO as the running buffer. […] The compounds were then allowed to dissociate from the surface for 120 seconds. […] Solvent correction was performed using 0.5, 1, 1.5, and 2% DMSO spike into running buffer without DMSO. […] Data was analyzed using steady-state analysis in Biacore Insight Evaluation Software, version 3.0 for Siglec ligand compounds.

[2] = molecular target: T2, mouse Siglec-2-Fc-Avi (CD22) (Mus musculus, UniProt P35329); assay: SPR binding affinity to mouse CD22; conditions: steady-state analysis
T2 construct: made in house
T2 sequence (P35329 22-708 limits assumed): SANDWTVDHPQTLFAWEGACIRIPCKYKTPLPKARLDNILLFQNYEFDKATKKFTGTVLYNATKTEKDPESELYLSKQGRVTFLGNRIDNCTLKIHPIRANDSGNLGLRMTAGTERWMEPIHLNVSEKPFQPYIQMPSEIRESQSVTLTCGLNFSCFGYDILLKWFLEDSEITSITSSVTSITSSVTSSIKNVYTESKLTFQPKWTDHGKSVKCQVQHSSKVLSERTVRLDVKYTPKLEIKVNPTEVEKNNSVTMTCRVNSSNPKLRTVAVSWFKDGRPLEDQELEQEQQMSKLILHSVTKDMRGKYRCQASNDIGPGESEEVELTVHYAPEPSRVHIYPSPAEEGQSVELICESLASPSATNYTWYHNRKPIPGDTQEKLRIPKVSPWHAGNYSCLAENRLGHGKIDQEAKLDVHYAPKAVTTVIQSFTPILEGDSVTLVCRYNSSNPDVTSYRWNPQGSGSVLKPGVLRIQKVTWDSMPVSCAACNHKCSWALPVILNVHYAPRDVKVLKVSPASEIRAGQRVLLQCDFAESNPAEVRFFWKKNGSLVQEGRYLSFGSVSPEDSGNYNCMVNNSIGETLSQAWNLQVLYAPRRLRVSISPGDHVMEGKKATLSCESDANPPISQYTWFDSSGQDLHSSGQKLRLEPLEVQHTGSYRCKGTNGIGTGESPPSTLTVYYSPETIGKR
Experimental: as §1, §2, §3

SMILES: C#CCOCCOCCNc1c(NCCCCCCO[C@]2(C(=O)O)C[C@H](O)[C@@H](NC(=O)CO)[C@H]([C@H](O)[C@H](O)CNC(=O)c3ccccc3)O2)c(=O)c1=O [Compound 230, (2R,4S,5R,6R)-6-((1R,2R)-3-benzamido-1,2-dihydroxypropyl)-2-((6-((3,4-dioxo-2-((2-(2-(prop-2-yn-1-yloxy)ethoxy)ethyl)amino)cyclobut-1-en-1-yl)amino)hexyl)oxy)-4-hydroxy-5-(2-hydroxyacetamido)tetrahydro-2H-pyran-2-carboxylic acid]
- Kd [1]: 1000 to 10000 nM
- Kd [2]: 1000 to 10000 nM

SMILES: CC(=O)NCCOCCOCCOCCOCCNc1c(NCCCCCCO[C@]2(C(=O)O)C[C@H](O)[C@@H](NC(C)=O)[C@H]([C@H](O)[C@H](O)CNC(=O)Cc3ccc(Cl)cc3)O2)c(=O)c1=O [Compound 248, (2R,4S,5R,6R)-5-acetamido-6-((1R,2R)-3-(2-(4-chlorophenyl)acetamido)-1,2-dihydroxypropyl)-2-((6-((3,4-dioxo-2-((2-oxo-6,9,12,15-tetraoxa-3-azaheptadecan-17-yl)amino)cyclobut-1-en-1-yl)amino)hexyl)oxy)-4-hydroxytetrahydro-2H-pyran-2-carboxylic acid]
- Kd [1]: < 1000 nM
- Kd [2]: 1000 to 10000 nM

SMILES: CC(=O)NCCOCCOCCOCCOCCC(=O)NCCCCCO[C@]1(C(=O)O)C[C@H](O)[C@@H](NC(C)=O)[C@H]([C@H](O)[C@H](O)CNC(=O)Cc2ccc(Cl)cc2)O1 [Compound 249, (2R,4S,5R,6R)-5-acetamido-6-((1R,2R)-3-(2-(4-chlorophenyl)acetamido)-1,2-dihydroxypropyl)-2-((2,18-dioxo-6,9,12,15-tetraoxa-3,19-diazatetracosan-24-yl)oxy)-4-hydroxytetrahydro-2H-pyran-2-carboxylic acid]
- Kd [1]: 1000 to 10000 nM
- Kd [2]: 1000 to 10000 nM

SMILES: CC(=O)NCCOCCOCCOCCOCc1cn(CCCCCCO[C@]2(C(=O)O)C[C@H](O)[C@@H](NC(C)=O)[C@H]([C@H](O)[C@H](O)CNC(=O)Cc3ccc(Cl)cc3)O2)nn1 [Compound 250, (2R,4S,5R,6R)-5-acetamido-6-((1R,2R)-3-(2-(4-chlorophenyl)acetamido)-1,2-dihydroxypropyl)-4-hydroxy-2-((6-(4-(15-oxo-2,5,8,11-tetraoxa-14-azahexadecyl)-1H-1,2,3-triazol-1-yl)hexyl)oxy) tetrahydro-2H-pyran-2-carboxylic acid]
- Kd [1]: < 1000 nM
- Kd [2]: 1000 to 10000 nM

SMILES: C#CCOCCCCCCS[C@]1(C(=O)O)C[C@H](O)[C@@H](NC(=O)CO)[C@H]([C@H](O)[C@H](O)CNC(=O)c2ccc(Cl)cc2)O1 [Compound 251, (2S,4S,5R,6R)-6-((1R,2R)-3-(4-chlorobenzamido)-1,2-dihydroxypropyl)-4-hydroxy-5-(2-hydroxyacetamido)-2-((6-(prop-2-yn-1-yloxy)hexyl)thio) tetrahydro-2H-pyran-2-carboxylic acid]
- Kd [1]: 1000 to 10000 nM
- Kd [2]: 1000 to 10000 nM

SMILES: C#CCOCCOCCNc1c(NCCCCCCO[C@]2(C(=O)O)C[C@H](O)[C@@H](NC(=O)CO)[C@H]([C@H](O)[C@H](O)CNC(=O)c3ccc(Cl)cc3)O2)c(=O)c1=O [Compound 254, (2R,4S,5R,6R)-6-((1R,2R)-3-(4-chlorobenzamido)-1,2-dihydroxypropyl)-2-((6-((3,4-dioxo-2-((2-(2-(prop-2-yn-1-yloxy)ethoxy)ethyl)amino)cyclobut-1-en-1-yl)amino)hexyl)oxy)-4-hydroxy-5-(2-hydroxyacetamido) tetrahydro-2H-pyran-2-carboxylic acid]
- Kd [1]: < 1000 nM
- Kd [2]: 1000 to 10000 nM

SMILES: C#CCOCCCCCCS[C@]1(C(=O)O)C[C@H](O)[C@@H](NC(=O)CO)[C@H]([C@H](O)[C@H](O)CNC(=O)c2cccc(Oc3ccccc3)c2)O1 [Compound 255, (2S,4S,5R,6R)-6-((1R,2R)-1,2-dihydroxy-3-(3-phenoxybenzamido)propyl)-4-hydroxy-5-(2-hydroxyacetamido)-2-((6-(prop-2-yn-1-yloxy)hexyl)thio) tetrahydro-2H-pyran-2-carboxylic acid]
- Kd [1]: < 1000 nM
- Kd [2]: 1000 to 10000 nM

SMILES: CC(=O)NCCOCCOCCOCCOCCn1cc(COCCCCCCO[C@]2(C(=O)O)C[C@H](O)[C@@H](NC(=O)CO)[C@H]([C@H](O)[C@H](O)CNC(=O)Cc3ccc(C(F)F)cc3)O2)nn1 [Compound 261, (2R,4S,5R,6R)-6-((1R,2R)-3-(2-(4-(difluoromethyl)phenyl)acetamido)-1,2-dihydroxypropyl)-4-hydroxy-5-(2-hydroxyacetamido)-2-((6-((1-(2-oxo-6,9,12,15-tetraoxa-3-azaheptadecan-17-yl)-1H-1,2,3-triazol-4-yl)methoxy)hexyl)oxy)tetrahydro-2H-pyran-2-carboxylic acid]
- Kd [1]: < 1000 nM
- Kd [2]: < 1000 nM

SMILES: CC(=O)NCCOCCOCCOCCOCCn1cc(COCCCCCCO[C@]2(C(=O)O)C[C@H](O)[C@@H](NC(=O)CO)[C@H]([C@H](O)[C@H](O)CNC(=O)Cc3ccc(Cl)cc3)O2)nn1 [Compound 262, (2R,4S,5R,6R)-6-((1R,2R)-3-(2-(4-chlorophenyl)acetamido)-1,2-dihydroxypropyl)-4-hydroxy-5-(2-hydroxyacetamido)-2-((6-((1-(2-oxo-6,9,12,15-tetraoxa-3-azaheptadecan-17-yl)-1H-1,2,3-triazol-4-yl)methoxy)hexyl)oxy)tetrahydro-2H-pyran-2-carboxylic acid]
- Kd [1]: < 1000 nM
- Kd [2]: 1000 to 10000 nM

SMILES: CC(=O)NCCOCCOCCOCCOCCn1cc(CCCCCCO[C@]2(C(=O)O)C[C@H](O)[C@@H](NC(=O)CO)[C@H]([C@H](O)[C@H](O)CNC(=O)Cc3ccc(Cl)cc3)O2)nn1 [Compound 263, (2R,4S,5R,6R)-6-((1R,2R)-3-(2-(4-chlorophenyl)acetamido)-1,2-dihydroxypropyl)-4-hydroxy-5-(2-hydroxyacetamido)-2-((6-(1-(2-oxo-6,9,12,15-tetraoxa-3-azaheptadecan-17-yl)-1H-1,2,3-triazol-4-yl)hexyl)oxy)tetrahydro-2H-pyran-2-carboxylic acid]
- Kd [1]: < 1000 nM
- Kd [2]: 1000 to 10000 nM

SMILES: CC(=O)NCCOCCOCCOCCOCCOC(=O)NCCCCCCO[C@]1(C(=O)O)C[C@H](O)[C@@H](NC(C)=O)[C@H]([C@H](O)[C@H](O)CNC(=O)c2cccc(Cl)c2)O1 [Compound 268, (2R,4S,5R,6R)-5-acetamido-6-((1R,2R)-3-(3-chlorobenzamido)-1,2-dihydroxypropyl)-2-((2,19-dioxo-6,9,12,15,18-pentaoxa-3,20-diazahexacosan-26-yl)oxy)-4-hydroxytetrahydro-2H-pyran-2-carboxylic acid]
- Kd [1]: 1000 to 10000 nM
- Kd [2]: > 10000 nM

SMILES: CC(=O)NCCOCCOCCOCCOCCNC(=O)NCCCCCCO[C@]1(C(=O)O)C[C@H](O)[C@@H](NC(C)=O)[C@H]([C@H](O)[C@H](O)CNC(=O)c2cccc(Cl)c2)O1 [Compound 269, (2R,4S,5R,6R)-5-acetamido-6-((1R,2R)-3-(3-chlorobenzamido)-1,2-dihydroxypropyl)-2-((2,19-dioxo-6,9,12,15-tetraoxa-3,18,20-triazahexacosan-26-yl)oxy)-4-hydroxytetrahydro-2H-pyran-2-carboxylic acid]
- Kd [1]: 1000 to 10000 nM
- Kd [2]: > 10000 nM
